Experimental data reported in patent US7560229B2, “Methods of use of the enzymes of mycothiol synthesis” (priority 2002, dated 2009).
In brackets after ≈: the same amount, converted by molar mass. Like-named read-outs stand apart in the source and are kept apart here.

Key:
[1] = tested on: M. smegmatis transposon mutant Tn1 (MshC deficient); type: cell-based; conditions: Tn1, from MIC
Description: (§1) To test this hypothesis, Tn1, Tn2, and I64 were grown on PBT plates supplemented with increasing amounts of the alkylating agents mBBr, iodoacetamide, and 1-chloro-2,4-dinitrobenzene (CDNB). The alkylating agents were poured into the molten agar.

[2] = tested on: M. smegmatis transposon mutant Tn2 (MshC deficient); type: cell-based; conditions: Tn2, from MIC
Description: as §1

[3] = tested on: M. smegmatis chemical mutant I64 (MshC deficient); type: cell-based; conditions: I64, from MIC
Description: as §1

[4] = molecular target: M. smegmatis Cys:GlcN-Ins ligase (MshC) (Mycolicibacterium smegmatis, UniProt A0QZY0); experiment: ATP-dependent Cys:GlcN-Ins ligase assay, substrate kinetics; conditions: [ATP]=1 mM, [Cys]=100 μM
Chain of M. smegmatis Cys:GlcN-Ins ligase (MshC) (A0QZY0 whole entry): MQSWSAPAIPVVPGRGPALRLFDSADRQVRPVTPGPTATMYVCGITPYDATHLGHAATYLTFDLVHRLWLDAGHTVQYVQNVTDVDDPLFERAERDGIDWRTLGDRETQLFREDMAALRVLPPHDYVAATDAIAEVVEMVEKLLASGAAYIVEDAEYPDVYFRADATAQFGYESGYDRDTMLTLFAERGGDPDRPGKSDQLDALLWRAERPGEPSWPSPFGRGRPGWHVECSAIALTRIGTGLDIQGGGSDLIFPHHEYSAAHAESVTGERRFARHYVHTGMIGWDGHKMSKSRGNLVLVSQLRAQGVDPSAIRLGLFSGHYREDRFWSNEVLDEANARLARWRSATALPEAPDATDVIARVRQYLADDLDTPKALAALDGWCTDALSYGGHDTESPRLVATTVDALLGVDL
Description: (§4) A minor modification of the protocol described by Anderberg et al (supra) was used for routine measurement of ATP-dependent ligase activity. The enzyme activity was assayed in a final volume of 25 μL containing 12.5 μL of the ligase in different dilutions, 50 μM GlcN-Ins, 100 μM Cys (Calbiochem), 1 mM ATP (Sigma), 1 mM MgCl2 (Fisher), 1 mM DTT (Calbiochem), 25 mM N-2-hydroxyethylpiperazine-N′-2-ethanesulfonic acid (HEPES) (Sigma), pH 7.5, and 35 μM each of the protease inhibitors (Sigma) N-α-p-tosyl-L-phenylalanylchloromethyl ketone and N-α-p-tosyl-L-lysinechloromethyl ketone. The mixture was incubated at 37° C. for 30 min. The assay was terminated by addition of 25 μL of 8 mM mBBr in acetonitrile and heating the mixture at 60° C. for 5 min to derivatize the thiols. The derivatization was quenched with the addition of 150 μl of 10 mM methanesulfonic acid and vortexing. HPLC analysis of CySmB-GlcN-Ins and CySmB was carried out by HPLC using a Beckman Ultrasphere IP (250×4.6 mm) analytical column fitted with a Brownley OD-GU 5 μ C-18 cartridge using the following linear gradients: 0 min., 100% A (0.1% TFA in water); 10 min, 100% A; 30 min, 80% A; 33 min, 100% B (7.5% methanol in acetonitrile); 36 min, 100% B; 38 min, 100% A; 60 min, 100% A (reinjection). The flow rate was 1 mL/min. and the fluorescence detection was accomplished with a 370 nm excitation filter and a 418-700 nm emission filter. The Vmax and Km values were calculated by least-squares analysis of Eadie-Hofstee plots with initial rate data using KaleidaGraph 3.5 (Synergy Software).

M. smegmatis mutant 49 = conditions: cited from earlier work
[5] = tested on: M. smegmatis parent strain mc^2155; experiment: Isoniazid MIC by Estrip; type: cell-based; conditions: Mycolicibacterium smegmatis; mc^2155, Estrip, 2-3 days at 37° C.
M. smegmatis mutant I64 [6] = experiment: Antibiotic sensitivity test (MIC); type: cell-based
[7] = tested on: M. smegmatis transposon mutant mshA::Tn5; experiment: Isoniazid MIC by Estrip; type: cell-based; conditions: Mycolicibacterium smegmatis
M. smegmatis mc^2155 = conditions: mc^2155, plating on antibiotic containing media, found earlier; cited from earlier work
[8] = tested on: M. smegmatis complemented mshA::Tn5 (mshA::Tn5 pAL0486); experiment: Isoniazid MIC by Estrip; type: cell-based; conditions: Mycolicibacterium smegmatis
[9] = tested on: M. smegmatis complemented strain 49 (49::pAL0486); experiment: Isoniazid MIC by Estrip; type: cell-based; conditions: Mycolicibacterium smegmatis
[10] = tested on: M. smegmatis chemical mutant 49; experiment: Isoniazid MIC by Estrip; type: cell-based; conditions: Mycolicibacterium smegmatis
[11] = tested on: M. smegmatis mc^2155 (wild type); experiment: Disk assay, redox cycling agents, zone of inhibition; type: cell-based
Description: (§2) To determine sensitivity to redox cycling agents, disk assays were performed. Briefly, cells were grown to mid-log phase and a lawn of cells was plated onto PBT or LB plates supplemented with appropriate antibiotics. Various amounts of redox-cycling agents plumbagin, and […] menadione and nitrofurantoin were added to the disk in 10 μl volume and allowed to dry. The disks were placed onto the lawn of cells and incubated 2-3 days.

M. smegmatis mutant Tn1 [12] = type: cell-based
Description: as §2

M. smegmatis mutant Tn2 [13] = type: cell-based
Description: as §2

M. smegmatis mutant I64 [14] = type: cell-based
Description: as §2

[15] = tested on: M. smegmatis mc^2155 (wild type)
Description: (§3) Peroxide sensitivity was determined by incubating cells (2.5×10^7 per ml) at 37° C. in Middlebrook 7H9 medium with 0.4% glucose and 0.05% TWEEN® 80 containing hydrogen peroxide at the desired level for 2 hours with shaking. Cells were diluted in fresh medium and plated on 7H10 agar. Colonies were counted when they achieved a diameter of 1-2 mm, which required 4-5 days for the wild type strain and up to 10 days for MSH-deficient mutant strains.

M. smegmatis mutant Tn1 [16] = tested on: M. smegmatis mutant Tn1
Description: as §3

M. smegmatis mutant Tn2 [17] = tested on: M. smegmatis mutant Tn2
Description: as §3

M. smegmatis mutant I64 [18] = conditions: I64, FIG. 6
Description: as §3

N[C@@H](CS)C(=O)O = experiment: purified protein, by the assay type; conditions: other: [ATP]=1 mM, [GlcN-Ins]=300 μM, Cys 5-400 μM; pH 7.5
Description: as §4

O=[N+]([O-])c1ccc(Cl)c([N+](=O)[O-])c1 [CDNB, 1-chloro-2,4-dinitrobenzene]
increase in sensitivity compared to wild type mc^2155 [1]: 2-3 fold | increase in sensitivity compared to wild type mc^2155 [2]: 2-3 fold

CN(C)C(=O)/N=N/C(=O)N(C)C [Diamide, diamide]
increase in sensitivity compared to wild type mc^2155 [1]: greater than 10 fold | increase in sensitivity compared to wild type mc^2155 [2]: greater than 10 fold | increase in sensitivity compared to wild type mc^2155 [3]: doubled

N[C@H]1[C@@H](OC2[C@H](O)[C@H](O)C(O)[C@H](O)[C@H]2O)O[C@H](CO)[C@@H](O)[C@@H]1O (stereo partly drawn) [GlcN-Ins, 1D-myo-inosityl 2-amino-2-deoxy-α-D-glucopyranoside]
Vmax (GlcN-Ins varied) [4]: 90 ± 7 nmol/min/mg | Km ([4]; read-out: apparent Km for GlcN-Ins, GlcN-Ins 5-600 μM): 72 ± 9 µM

NC(=O)CI [Iodoacetamide, iodoacetamide]
increase in sensitivity compared to wild type mc^2155 [1]: two-fold | increase in sensitivity compared to wild type mc^2155 [2]: 5 fold | increase in sensitivity compared to wild type mc^2155 [3]: two-fold

NNC(=O)c1ccncc1 [Isoniazid, isoniazid]
MIC (M. smegmatis mutant 49; mutant 49, plating on antibiotic containing media, found earlier): > 50 µg/mL | isoniazid concentration to which strain 49 is resistant (M. smegmatis mutant 49; strain 49 (Newton et al. 1999)): 100 μg isoniazid/ml | MIC [5]: 1 µg/mL (≈ 7.29 µM) | fold greater resistance than the wild type (M. smegmatis mutant I64 [6]): 16 fold | MIC [7]: > 250 µg/mL | MIC (M. smegmatis mc^2155): 2 µg/mL (≈ 14.6 µM) | MIC [8]: 2.7 µg/mL (≈ 19.7 µM) | MIC [9]: 28 µg/mL (≈ 204 µM) | MIC [10]: > 250 µg/mL

CC1=CC(=O)c2ccccc2C1=O [Menadione, menadione]
Zone of Inhibition ([11]; 0.1 μmol agent on disk): 9.7 ± 0.3 mm | Zone of Inhibition ([11]; 0.5 μmol agent on disk): 19.7 ± 0.9 mm | Zone of Inhibition (M. smegmatis mutant Tn1 [12]; Tn1, 0.1 μmol agent on disk): 20.7 ± 3.8 mm | Zone of Inhibition (M. smegmatis mutant Tn1 [12]; Tn1, 0.5 μmol agent on disk): 31.3 ± 1.3 mm | Zone of Inhibition (M. smegmatis mutant Tn2 [13]; Tn2, 0.1 μmol agent on disk): 15.3 ± 2.0 mm | Zone of Inhibition (M. smegmatis mutant Tn2 [13]; Tn2, 0.5 μmol agent on disk): 16.4 ± 1.9 mm | Zone of Inhibition (M. smegmatis mutant I64 [14]; I64, 0.1 μmol agent on disk): 8.7 ± 0.7 mm | Zone of Inhibition (M. smegmatis mutant I64 [14]; I64, 0.5 μmol agent on disk): 26.7 ± 0.9 mm

O=C1CN(/N=C/c2ccc([N+](=O)[O-])o2)C(=O)N1 [Nitrofurantoin, nitrofurantoin]
Zone of Inhibition ([11]; 0.5 μmol agent on disk): 4.7 ± 0.3 mm | Zone of Inhibition ([11]; 1.0 μmol agent on disk): 6.0 ± 0.6 mm | Zone of Inhibition (M. smegmatis mutant Tn1 [12]; Tn1, 0.5 μmol agent on disk): 10.7 ± 2.6 mm | Zone of Inhibition (M. smegmatis mutant Tn1 [12]; Tn1, 1.0 μmol agent on disk): 14.0 ± 2.7 mm | Zone of Inhibition (M. smegmatis mutant Tn2 [13]; Tn2, 1.0 μmol agent on disk): 35.0 ± 3.6 mm | Zone of Inhibition (M. smegmatis mutant I64 [14]; I64, 0.5 μmol agent on disk): 5.0 ± 0.6 mm | Zone of Inhibition (M. smegmatis mutant I64 [14]; I64, 1.0 μmol agent on disk): 8.7 ± 0.3 mm

CC1=CC(=O)c2c(O)cccc2C1=O [Plumbagin, plumbagin]
Zone of Inhibition ([11]; 0.005 μmol agent on disk): 11.0 ± 1.0 mm | Zone of Inhibition ([11]; 0.01 μmol agent on disk): 13.5 ± 0.5 mm | Zone of Inhibition (M. smegmatis mutant Tn1 [12]; Tn1, 0.005 μmol agent on disk): 17.0 ± 0.6 mm | Zone of Inhibition (M. smegmatis mutant Tn1 [12]; Tn1, 0.01 μmol agent on disk): 23.0 ± 1.2 mm | Zone of Inhibition (M. smegmatis mutant Tn2 [13]; Tn2, 0.005 μmol agent on disk): 15.0 ± 0.0 mm | Zone of Inhibition (M. smegmatis mutant Tn2 [13]; Tn2, 0.01 μmol agent on disk): 23.0 ± 1.0 mm | Zone of Inhibition (M. smegmatis mutant I64 [14]; I64, 0.005 μmol agent on disk): 9.3 ± 0.9 mm | Zone of Inhibition (M. smegmatis mutant I64 [14]; I64, 0.01 μmol agent on disk): 13.3 ± 1.9 mm

OO [hydrogen peroxide]
H2O2 concentration at which the strain can survive [15]: 10 mM | H2O2 concentration the strain is unable to tolerate (M. smegmatis mutant Tn1 [16]; Tn1, 2 hours at 37° C., FIG. 6): ≤ 1 MM | times more sensitive to hydrogen peroxide than the wild type strain (M. smegmatis mutant Tn1 [16]; Tn1, FIG. 6): about 10 times | H2O2 concentration the strain is unable to tolerate (M. smegmatis mutant Tn2 [17]; Tn2, 2 hours at 37° C., FIG. 6): ≤ 1 MM | times more sensitive to hydrogen peroxide than the wild type strain (M. smegmatis mutant Tn2 [17]; Tn2, FIG. 6): about 10 times | tolerance to peroxide stress (M. smegmatis mutant I64 [18]): intermediate between wild type mc^2155 and the transposon mutants

Cc1c(C)n2c(CBr)c(C)c(=O)n2c1=O [mBBr, monobromobimane]
increase in sensitivity compared to wild type mc^2155 [1]: 4 fold | increase in sensitivity compared to wild type mc^2155 [2]: 4 fold | increase in sensitivity compared to wild type mc^2155 [3]: more susceptible

M. smegmatis Cys:GlcN-Ins ligase (MshC) (Mycolicibacterium smegmatis MC2 155)
Km (N[C@@H](CS)C(=O)O): 40 ± 3 µM | Vmax (N[C@@H](CS)C(=O)O): 83 ± 3 nmol/min/mg
